For five compounds, EC50 results are on record in patent publication US20260132128A1, “COMPOUND FOR RECOVERING P53 MUTATION FUNCTION AND USE THEREOF” (SHENZHEN ZHONGGE BIOLOGICAL TECHNOLOGY CO., LTD., priority 2022, published 2026).

In general, EC50 refers to the concentration at which the effect is half-maximal. A high value points to lower potency in that assay.

Each structure is given as a SMILES string. Bounds are passed on as bounds.

In the assay the target is T1, p53 Y220C (Homo sapiens, UniProt P04637, P309S/R273H/Y220C).
T1 construct: a truncated mutant containing only amino acids 94-312 of p53; made in house; host or cells: E. coli
T1 sequence (P04637 94-312, stated change not applied): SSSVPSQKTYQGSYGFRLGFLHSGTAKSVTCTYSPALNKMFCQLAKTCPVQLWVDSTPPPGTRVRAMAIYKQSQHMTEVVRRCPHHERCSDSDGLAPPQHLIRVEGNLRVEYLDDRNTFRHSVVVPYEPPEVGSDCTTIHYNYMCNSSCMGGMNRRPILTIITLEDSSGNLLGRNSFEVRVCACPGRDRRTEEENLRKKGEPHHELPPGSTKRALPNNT
Briefly: DNA binding test (HTRF): binding of P53Y220C protein to DNA. The class given is biochemical. The note with it: HTRF, activation of p53 Y220C (aa 94-312) binding to biotin DNA. For orientation: In TR-FRET formats the signal depends on donor and acceptor labels being close together.

The compound `CNC(=O)c1ccc(NCC#Cc2nc3c(NC4CCC(N5CC6(COC6)C5)CC4F)cccn3c2CC(F)(F)F)c(OC)c1` (single isomer, unassigned) [Compound 35-6i] came in with an EC50 of under 100 nM.

On to `[2H]C([2H])([2H])NC(=O)c1ccc(NCC#Cc2cc3c(NC4CCC(N5CC6(COC6)C5)CC4F)cccn3c2CC(F)(F)F)c(OC([2H])([2H])[2H])c1` (single isomer, unassigned) [Compound 74d], for which the concentration for a half-maximal effect (EC50) is under 100 nM. The compound `CNC(=O)c1ccc(NCC#Cc2nc3c(N[C@@H]4CCN(C)C[C@@H]4F)cccn3c2CC(F)(F)F)c(OC)c1` [Compound 5] gave a half-maximal effective concentration (EC50) of under 100 nM. With `COc1cc(C(=O)NC2CC2)ccc1NCC#Cc1nc2c(NC3CC[C@@H](N4CC5(COC5)C4)C[C@@H]3F)cccn2c1CC(F)(F)F` (some centres unmarked) [Compound 54] the figure was under 100 nM; with `[2H]C([2H])([2H])NC(=O)c1ccc(NCC#Cc2nc3c(NC4CC[C@@H](N5CC6(COC6)C5)C[C@@H]4F)cccn3c2CC(F)(F)F)c(OC([2H])([2H])[2H])c1` (some centres unmarked) [Compound 64], under 100 nM.
